# Laboratory results published in patent publication US11065265B2, “Compositions of fosaprepitant and methods of preparation” (SPES PHARMACEUTICALS INC., priority 2018, dated 2021).
# Columns and labels:
# [1] = Solubility enhancing effect of cyclodextrin derivative on aprepitant in aqueous medium; format: physicochemical
# [2] = cited from earlier work
smiles,measurement,setting,value
C[C@@H](O[C@H]1OCCN(Cc2n[nH]c(=O)[nH]2)[C@H]1c1ccc(F)cc1)c1cc(C(F)(F)F)cc(C(F)(F)F)c1 [Aprepitant],Increase in Aprepitant Solubility,[1]; Cyclodextrin Derivative 0 mg/mL,0%
same,Increase in Aprepitant Solubility,[1]; Cyclodextrin Derivative 32 mg/mL,105%
same,Increase in Aprepitant Solubility,[1]; Cyclodextrin Derivative 64 mg/mL,300%
same,Increase in Aprepitant Solubility,[1]; Cyclodextrin Derivative 128 mg/mL,748%
same,Increase in Aprepitant Solubility,[1]; Cyclodextrin Derivative 160 mg/mL,1039%
same,Increase in Aprepitant Solubility,[1]; Cyclodextrin Derivative 180 mg/mL,1244%
same,Increase in Aprepitant Solubility,[1]; Cyclodextrin Derivative 200 mg/mL,1322%
same,Increase in Aprepitant Solubility,[1]; Cyclodextrin Derivative 255 mg/mL,1717%
same,solubility in non-polar solvents such as oils,[2]; non-polar solvents such as oils,reasonably high
same,solubility in water,[2]; water,very limited
